Measurements published in patent publication US8227459B2, “Diamino-phenothiazinyl derivatives as antiviral treatments” (priority 2007, dated 2012).

How the values were obtained:
VEEV Trinidad virus = type: cell-based, Venezuelan Equine Encephalitis virus
RVFV = type: cell-based, Rift Valley Fever virus
WNV = type: cell-based, West Nile virus
LASV = type: cell-based, Lhasa virus
DENV = type: cell-based, Dengue virus
HCV = type: cell-based, hepatitis C virus
EBOV [1] = type: cell-based, Ebola virus
CHK = type: cell-based, chikungunya virus
WEEV = type: cell-based, Wester Equine Encephalitis virus
EEEV = type: cell-based, Easter Equine Encephalitis virus
PTV = type: cell-based, Punta Toro Virus
EBOV [2] = system: EBOV; parameters: species or system mice; settings: mouse, in vivo, ip
Marburg virus = system: Marburg virus; parameters: species or system mice; settings: mouse, in vivo, ip

Row | Molecule | EC99 VEEV (VEEV Trinidad virus) | EC99 RVFV (RVFV) | EC99 WNV (WNV) | EC99 LASV (LASV) | EC99 DENV (DENV) | further results
1 | CN(C)c1cc(Cl)c2nc3c(Cl)cc(=[N+](C)C)cc-3sc2c1 [Compound 4] | <1 µM | 0.05 µM | <1 µM | <5 µM |  | 
2 | CNc1ccc2nc3ccc(N)cc3[s+]c2c1.[Cl-] [Azure C] | 0.1 µM |  |  |  | <1 µM | 
3 | CN(C)c1ccc2nc3ccc(=[N+](C)C)cc-3sc2c1 [Methylene Blue (MB), Methylene Blue] | <1 µM | >5 µM | <1 µM |  | 10 µM | EC99 HCV (HCV): 0.02 to 0.08 µM; EC99 EBOV (EBOV [1]): >3.2 µM; EC99 CHK (CHK): 1 µM; EC99 WEEV (WEEV): 1 µM; EC99 EEEV (EEEV): 1 µM
4 | CN(C)c1cc(F)c2nc3c(F)cc(=[N+](C)C)cc-3sc2c1 [Compound 3] | <1 µM | >5 µM | 1 µM | >5 µM |  | 
5 | Azure B | 0.1 to 1 µM |  |  |  | 1 µM | 
6 | Cc1cc2nc3ccc(N(C)C)cc3[s+]c2cc1N.[Cl-] [Toluidine Blue] | <10 µM |  |  |  | 1 µM | 
7 | Cc1cc(=[N+](C)C)cc2sc3cc(N(C)C)cc(C)c3nc1-2.[Cl-] [Dimethyl MB, dimethylmethylene blue] | 0.02 to 0.1 µM | <10 µM | 0.025 to 0.1 µM | <1 µM |  | EC99 HCV (HCV): 0.2 to 0.5 µM; EC99 EBOV (EBOV [1]): 0.025 to 0.1 µM; EC99 CHK (CHK): 0.1 to 1 µM; EC99 WEEV (WEEV): 0.1 µM; EC99 EEEV (EEEV): <0.1 µM; EC99 PTV (PTV): 5 µM; prophylaxis of study group against EBOV (EBOV [2]): complete prophylaxis; survival, EBOV (EBOV [2]): 100%; day by which surviving mice had recovered, Marburg (Marburg virus): ≤ 9 days; prophylaxis of study group against Marburg (Marburg virus): 60%
8 | CN(C)c1ccc2nc3ccc(N)cc3[s+]c2c1.[Cl-] [Azure A] | 0.1 to 1 µM |  |  |  | 1 µM | 
